Assay results as given in PubChem BioAssay (NCI).
Several values for one entry are separate records, joined by “and”; a condition that tells them apart may be missing. Equal values may be shown once.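 Tested at 5 concentrations; 48 h exposure; 96-well plates; endpoints linearly interpolated, else capped at highest concentration. GI50 = concentration required for 50% inhibition of growth. TGI: total growth inhibition.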

Legend:
Experiment in all cases: NCI anticancer screen, dose series, 48 h
[1] = tested on: 786-0 renal
[2] = tested on: SW-620 colon
[3] = tested on: NCI-H226 lung
[4] = tested on: SF-539 CNS
[5] = tested on: SK-MEL-5 melanoma
[6] = tested on: HL-60(TB) leukemia
[7] = tested on: HCT-116 colon
[8] = tested on: LOX IMVI melanoma
[9] = tested on: HT29 colon
[10] = tested on: RPMI-8226 leukemia

Structure (SMILES)	TGI [1]	TGI [2]	TGI [3]	TGI [4]	TGI [5]	TGI [6]	TGI [7]	TGI [8]	TGI [9]	GI50 [10]	TGI [10]	GI50 [1]	GI50 [2]	GI50 [4]	GI50 [5]	GI50 [6]	GI50 [7]	GI50 [8]	GI50 [9]	GI50 [3]
Cc1ccc(S(=O)(=O)NC(Cc2ccccc2)C(=O)CCl)cc1 (stereo not drawn)	27.8 µM	24.1 µM	33.1 µM	30.4 µM	25 µM	> 100 µM	23.8 µM	20.1 µM	28.5 µM											
O=C(Nc1ccc(Cl)cc1)c1cc(NCc2cc(O)ccc2O)ccc1O	19.6 µM	22.8 µM		4.16 µM	20 µM	4.86 µM	18.2 µM	23.1 µM	58.5 µM	0.57 µM	4.41 µM	6.17 µM	4.14 µM	1.73 µM	6.12 µM	1.4 µM	3.48 µM	4.1 µM	22.2 µM	
CCCCSC1CCSc2c1ccc1ccccc21 (stereo not drawn)	> 100 µM			> 100 µM	> 100 µM	> 100 µM	> 100 µM		> 100 µM		> 100 µM									
NC(CCl)=NCC12CC3CC(CC(C3)C1)C2	13.2 µM	4.37 µM	11.3 µM	11.2 µM	3.79 µM	3.78 µM	2.56 µM	2.67 µM	2.93 µM			0.966 µM	0.338 µM	0.702 µM	0.973 µM	1.06 µM	0.41 µM	0.805 µM	0.458 µM	1.43 µM
COc1cc(/C=C/C(=O)c2ccccc2O)ccc1OCCCOc1cc2c(cc1OC)C(=O)N1CCC[C@H]1C=N2	1.53 µM		0.541 µM	0.118 µM	0.167 µM	0.161 µM	1.57 µM	0.0489 µM	> 100 µM	0.0282 µM	0.0758 µM	0.025 µM		0.0359 µM	0.0577 µM	0.0515 µM	0.0332 µM	0.0204 µM	0.0344 µM	0.181 µM
O=C(N/C(=C\c1cccc([N+](=O)[O-])c1)c1nc2c3c(ccc2[nH]1)C(=O)c1ccccc1C3=O)c1ccccc1	> 100 µM	> 100 µM	> 100 µM	> 100 µM	> 100 µM		> 100 µM		> 100 µM		> 100 µM									
Cc1cc(C)c([I+]c2c(C)cc(C)cc2C)c(C)c1	2.11 µM		1.92 µM	2.16 µM	0.476 µM		1.35 µM		1.29 µM			0.749 µM		0.891 µM	0.201 µM		0.348 µM		0.279 µM	0.505 µM
CCCCCCCCCCCCCCCCCC1=NC(C)(C)CN1C(C)(C)CO	2.89 µM	2.9 µM	4.06 µM	3.14 µM	3.07 µM	4.07 µM	2.01 µM		3.44 µM	1.8 µM	4.37 µM	1.45 µM	1.48 µM	1.59 µM	1.68 µM	1.15 µM	0.559 µM		1.44 µM	2.14 µM
N#Cc1ccc2[nH]cc(Cc3c[nH]c4ccc(C#N)cc34)c2c1	38 µM	> 50 µM	> 50 µM	16.9 µM	17.7 µM		28.4 µM	18.9 µM	> 50 µM	13.9 µM	49.7 µM	13.4 µM	17.8 µM	8.64 µM	8.7 µM		10.9 µM	6.99 µM	18.4 µM	17.9 µM
COC(=O)[C@@H](C)C[C@H](Cc1ccccc1)NC(=O)c1csc([C@@H](C[C@H](C(C)C)N(C)C(=O)[C@@H](NC(=O)[C@H]2CCCCN2C)c2ccc(F)cc2)OC(C)=O)n1	6.23 µM and 42.5 µM	25 µM and > 100 µM		0.0662 µM and 0.615 µM			25 µM and > 100 µM	6.71 µM and 20.8 µM		0.00504 µM and 0.0025 µM and 0.0207 µM	25 µM and 22 µM			0.0215 µM and 0.0604 µM	0.00535 µM and 0.0025 µM and 0.0101 µM	0.00219 µM				
CSc1nc2c(nc(N)n2C2OC(CO)C(O)C(O)C2O)c(=O)[nH]1 (stereo not drawn)	> 100 µM	> 100 µM	> 100 µM	> 100 µM	> 100 µM	> 100 µM	> 100 µM	> 100 µM	> 100 µM											
NCCCNCc1c2ccccc2c(CNCCCN)c2ccccc12	36.2 µM	26 µM		28.9 µM	66.6 µM	39.3 µM	48.2 µM		94.3 µM											
C/C(COc1ccc2oc(-c3ccccc3)cc(=O)c2c1)=N\O	> 100 µM	> 100 µM	> 100 µM	5.8 µM		> 100 µM	> 100 µM	3.34 µM	> 100 µM	22.3 µM	62.3 µM	9.05 µM	26.2 µM	2.1 µM		74.5 µM	25.3 µM	1.38 µM	22.7 µM	> 100 µM
Oc1ccc(O)c(-n2cccn2)c1	> 100 µM	73.7 µM		> 100 µM	> 100 µM	44.8 µM		> 100 µM	> 100 µM		> 100 µM									
C=CCN=C1NC(=O)C(CC(=O)Nc2cccc(Cl)c2)S1 (stereo not drawn)	> 100 µM	> 100 µM	> 100 µM	> 100 µM	> 100 µM	> 100 µM		> 100 µM	> 100 µM		> 100 µM									
O=C(NC1CCCCC1)NC12CC3CC(CC(F)(C3)C1)C2	> 100 µM	> 100 µM		> 100 µM	> 100 µM	> 100 µM	> 100 µM	> 100 µM	> 100 µM		> 100 µM									
Oc1cccc2cccnc12	> 100 µM	> 100 µM	37.4 µM and > 100 µM and > 84 µM	54.1 µM and 81.1 µM and > 100 µM	36.7 µM and 45.2 µM and > 71.7 µM		23.1 µM and > 100 µM	14.8 µM and > 100 µM	> 100 µM	0.2 µM	1.07 µM and 4.31 µM		0.904 µM and 3.9 µM and 2.36 µM	4.56 µM and 26.9 µM and 4.11 µM			1.06 µM and 3.42 µM and 1.46 µM	1.65 µM and 0.709 µM and 2.29 µM	3.53 µM and 13.8 µM and 4.64 µM	8.82 µM and 44.4 µM and 28.6 µM
Cc1cc2[nH]c(=O)c3c4ncccc4cn3c2cc1C	8.42 µM	> 100 µM	> 100 µM	3.98 µM			4.53 µM	3.34 µM	> 100 µM	2.66 µM	7.61 µM	3.06 µM	2.89 µM	1.93 µM			1.92 µM	1.72 µM	2.98 µM	6.04 µM
